Experiments:
[1] = biological target: T1, human vanilloid-1 (hVR-1) in hVR-1-HEK293 cell line (Homo sapiens, UniProt Q8NER1); experiment: Inhibitory effect on calcium influx via a vanilloid receptor (capsaicin-stimulated, Fluo-3/AM); assay type: cell-based; settings: hVR-1-HEK293 cells, 1 μM of capsaicin, compounds 0.015˜2000 nM; read-out: I.A. (inhibitory activity), IC50 on intracellular calcium influx
T1 construct: expressed in transfected cells; host or cells: HEK293 Tet-on strain, doxycycline-induced
Description: The cell line can modulate the expression of VR-1, depending on whether doxycycline, a derivative of tetracycline, is present or not. […] Specifically, hVR-1-HEK293 cells were cultured in a T75 flask to about 80% confluency, separated from the flask by treating with trypsin solution, and then collected by centrifugation. The cells were suspended in a medium containing 1 μg/mL of doxycycline, and the resulting suspension was diluted to a concentration of 2˜4×10^5 cells/mL […], of the cell suspension was placed in each well of a 96-well black plate. The cells were cultured in 5% CO2 incubator at 37° C. for 2 days, and used for the following procedure. […] The cells prepared in 1) above were cultured at 37° C. for 90 min in a solution containing Fluo-3/AM, a fluorescent dye, as a calcium indicator so that the fluorescent dye was permeated into the cells. […] In order to stimulate calcium influx through a vanilloid receptor, the cells were treated with 1 μM of capsaicin. […] The obtained data were input to the Hill equation represented by the following formula I and the values were analyzed: Intracellular calcium influx= [(fluorescent intensity of experimental group−fluorescent intensity of background)/(fluorescent intensity of positive control−fluorescent intensity of background)]*100 [Formula I] The inhibitory activities were evaluated from the obtained intracellular calcium influx values according to the following criteria.

ICR male mice = experiment: Phenyl-p-quinone (PBQ)-induced writhing experiment using mice; assay type: in vivo; settings: orally administered, PBQ (0.02%) intraperitoneally after 1 hour, writhing counted for 10 min
Description: In order to evaluate the effect on pain of the compounds prepared in the Examples, behaviors such as twisting or writhing of body resulted from pain were verified by the phenyl-p-quinone (PBQ)-induced writhing experiment using mice. 5 week-old ICR male mice were used as experimental animals and PBQ (0.02%), as a chemical stimulator. The suspensions of 20 mg of the compounds of the present invention and an excipient such as Na—CMC (sodium carboxymethyl cellulose) in 10 mL of saline were used as test compounds. The test compounds were orally administered to the mice and after 1 hour, PBQ was intraperitoneally administrated in an amount of 10 mL per kg of body weight. Also, as a control group, equivalent amounts of BCTC were administered. The writhing number of each mouse was measured for 10 min starting from 5 min after the administration, and the analgesic effect was verified by counting the reduced number compared to the control group administered with only excipient and calculating the % inhibitory rate according to the following Formula 2. % inhibition rate=(writhing # of control group−writhing # of test group)/writhing # of control group×100 [Formula 2]

T1 sequence (Q8NER1 whole entry): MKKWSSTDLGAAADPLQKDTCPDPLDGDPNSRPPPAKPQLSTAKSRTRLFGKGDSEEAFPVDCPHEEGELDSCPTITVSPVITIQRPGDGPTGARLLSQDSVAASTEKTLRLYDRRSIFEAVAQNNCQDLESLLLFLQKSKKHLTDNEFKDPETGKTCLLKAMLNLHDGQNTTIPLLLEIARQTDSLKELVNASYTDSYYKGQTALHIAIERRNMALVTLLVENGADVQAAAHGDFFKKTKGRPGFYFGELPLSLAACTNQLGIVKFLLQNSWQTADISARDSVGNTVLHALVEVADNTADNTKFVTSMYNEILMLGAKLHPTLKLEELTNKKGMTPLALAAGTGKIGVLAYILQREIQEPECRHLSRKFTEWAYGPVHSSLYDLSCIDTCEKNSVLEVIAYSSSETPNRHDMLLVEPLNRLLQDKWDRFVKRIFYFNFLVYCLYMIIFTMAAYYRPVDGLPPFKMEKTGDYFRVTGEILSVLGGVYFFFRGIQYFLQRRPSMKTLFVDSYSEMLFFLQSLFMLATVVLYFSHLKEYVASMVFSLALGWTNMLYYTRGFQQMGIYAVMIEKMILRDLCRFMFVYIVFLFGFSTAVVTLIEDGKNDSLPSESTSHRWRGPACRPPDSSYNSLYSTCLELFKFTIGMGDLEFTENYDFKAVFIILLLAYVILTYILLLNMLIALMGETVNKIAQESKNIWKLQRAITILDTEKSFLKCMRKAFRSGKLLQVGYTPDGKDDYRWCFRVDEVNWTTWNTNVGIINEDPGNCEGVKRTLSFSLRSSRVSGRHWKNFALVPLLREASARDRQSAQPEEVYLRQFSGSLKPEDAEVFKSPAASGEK

Row | SMILES | IC50 [1] [nM] | I.A. (inhibitory activity), % inhibition rate of writhing (ICR male mice)
1 | Cc1ccc(N2c3cccc(-c4nc5ccc(Br)cc5[nH]4)c3OC[C@@H]2CO)nc1 [Example 36, [(S)-8-(6-bromo-1H-benzimidazol-2-yl)-4-(5-methyl-pyridin-2-yl)-3,4-dihydro-2H-benzo[1,4]oxazin-3-yl]-methanol] | < 20 | +++ (51-80%)
2 | Cc1ccc(N2c3cccc(-c4nc5ccc(Cl)cc5[nH]4)c3OC[C@@H]2CO)nc1 [Example 37, [(S)-8-(6-chloro-1H-benzimidazol-2-yl)-4-(5-methyl-pyridin-2-yl)-3,4-dihydro-2H-benzo[1,4]oxazin-3-yl]-methanol] | 20 to 100 | +++ (51-80%)
3 | Cc1ccc(N2c3cccc(-c4nc5cc(Cl)c(Cl)cc5[nH]4)c3OC[C@@H]2CO)nc1 [Example 38, [(S)-8-(5,6-dichloro-1H-benzimidazol-2-yl)-4-(5-methyl-pyridin-2-yl)-3,4-dihydro-2H-benzo[1,4]oxazin-3-yl]-methanol] | < 20 | +++ (51-80%)
4 | Cc1ccc(N2c3cccc(-c4nc5c(Cl)cc(C(F)(F)F)cc5[nH]4)c3OC[C@@H]2CO)nc1 [Example 39, [(S)-8-(4-chloro-6-trifluoromethyl-1H-benzimidazol-2-yl)-4-(5-methyl-pyridin-2-yl)-3,4-dihydro-2H-benzo[1,4]oxazin-3-yl]-methanol] | < 20 | +++ (51-80%)
5 | Cc1ccc(N2c3cccc(-c4nc5c(C(F)(F)F)cc(C(F)(F)F)cc5[nH]4)c3OC[C@@H]2CO)nc1 [Example 40, [(S)-8-(4,6-bis-trifluoromethyl-1H-benzimidazol-2-yl)-4-(5-methyl-pyridin-2-yl)-3,4-dihydro-2H-benzo[1,4]oxazin-3-yl]-methanol] | 20 to 100 | ++++ (>80%)
6 | Cc1ccc(N2c3cccc(-c4nc5c(Br)cc(C(F)(F)F)cc5[nH]4)c3OC[C@@H]2CO)nc1 [Example 41, [(S)-8-(4-bromo-6-trifluoromethyl-1H-benzimidazol-2-yl)-4-(5-methyl-pyridin-2-yl)-3,4-dihydro-2H-benzo[1,4]oxazin-3-yl]-methanol] | < 20 | ++ (20˜50%)
7 | Cc1ccc(N2c3cccc(-c4nc5c(Br)cc(Br)cc5[nH]4)c3OC[C@@H]2CO)nc1 [Example 42, [(S)-8-(4,6-dibromo-1H-benzimidazol-2-yl)-4-(5-methyl-pyridin-2-yl)-3,4-dihydro-2H-benzo[1,4]oxazin-3-yl]-methanol] | 20 to 100 | +++ (51-80%)
8 | Cc1ccc(N2c3cccc(-c4nc5c(F)cc(Br)cc5[nH]4)c3OC[C@@H]2CO)nc1 [Example 43, [(S)-8-(6-bromo-4-fluoro-1H-benzimidazol-2-yl)-4-(5-methyl-pyridin-2-yl)-3,4-dihydro-2H-benzo[1,4]oxazin-3-yl]-methanol] | < 20 | ++ (20˜50%)
9 | Cc1ccc(N2c3cccc(-c4nc5cc(F)c(F)cc5[nH]4)c3OC[C@@H]2CO)nc1 [Example 44, [(S)-8-(5,6-difluoro-1H-benzimidazol-2-yl)-4-(5-methyl-pyridin-2-yl)-3,4-dihydro-2H-benzo[1,4]oxazin-3-yl]-methanol] | < 20 | ++++ (>80%)
10 | Cc1ccc(N2c3cccc(-c4nc5cc(F)c(Cl)cc5[nH]4)c3OC[C@@H]2CO)nc1 [Example 45, [(S)-8-(6-chloro-5-fluoro-1H-benzimidazol-2-yl)-4-(5-methyl-pyridin-2-yl)-3,4-dihydro-2H-benzo[1,4]oxazin-3-yl]-methanol] | < 20 | +++ (51-80%)
11 | Cc1ccc(N2c3cccc(-c4nc5c(C)cc(Br)cc5[nH]4)c3OC[C@@H]2CO)nc1 [Example 46, [(S)-8-(6-bromo-4-methyl-1H-benzimidazol-2-yl)-4-(5-methyl-pyridin-2-yl)-3,4-dihydro-2H-benzo[1,4]oxazin-3-yl]-methanol] | < 20 | ++ (20˜50%)
12 | Cc1ccc(N2c3cccc(-c4nc5ccc(OC(F)(F)F)cc5[nH]4)c3OC[C@@H]2CO)nc1 [Example 47, [(S)-4-(5-methyl-pyridin-2-yl)-8-(6-trifluoromethoxy-1H-benzimidazol-2-yl)-3,4-dihydro-2H-benzo[1,4]oxazin-3-yl]-methanol] | < 20 | ++ (20˜50%)
13 | COc1ccc2nc(-c3cccc4c3OC[C@H](CO)N4c3ccc(C)cn3)[nH]c2c1 [Example 48, [(S)-8-(6-methoxy-1H-benzimidazol-2-yl)-4-(5-methyl-pyridin-2-yl)-3,4-dihydro-2H-benzo[1,4]oxazin-3-yl]-methanol] | 20 to 100 | ++ (20˜50%)
14 | Cc1ccc(N2c3cccc(-c4nc5ccc(F)cc5[nH]4)c3OC[C@@H]2CO)nc1 [Example 49, [(S)-8-(6-fluoro-1H-benzimidazol-2-yl)-4-(5-methyl-pyridin-2-yl)-3,4-dihydro-2H-benzo[1,4]oxazin-3-yl]-methanol] | < 20 | +++ (51-80%)
15 | Cc1ccc(N2c3cccc(-c4nc5c(C)cccc5[nH]4)c3OC[C@@H]2CO)nc1 [Example 50, [(S)-8-(4-methyl-1H-benzimidazol-2-yl)-4-(5-methyl-pyridine-2-yl)-3,4-dihydro-2H-benzo[1,4]oxazin-3-yl]-methanol] | < 20 | + (<20%)
16 | Cc1ccc(N2c3cccc(-c4nc5cc(C)ccc5[nH]4)c3OC[C@@H]2CO)nc1 [Example 51, [(S)-8-(5-methyl-1H-benzimidazol-2-yl)-4-(5-methyl-pyridin-2-yl)-3,4-dihydro-2H-benzo[1,4]oxazin-3-yl]-methanol] | < 20 | + (<20%)
17 | Cc1ccc(N2c3cccc(-c4nc5c(C)c(C)ccc5[nH]4)c3OC[C@@H]2CO)nc1 [Example 52, [(S)-8-(4,5-dimethyl-1H-benzimidazol-2-yl)-4-(5-methyl-pyridin-2-yl)-3,4-dihydro-2H-benzo[1,4]oxazin-3-yl]-methanol] | < 20 | ++ (20˜50%)
18 | Cc1ccc(N2c3cccc(-c4nc5ccccc5[nH]4)c3OC[C@@H]2CO)nc1 [Example 53, [(S)-8-(1H-benzimidazol-2-yl)-4-(5-methyl-pyridin-2-yl)-3,4-dihydro-2H-benzo[1,4]oxazin-3-yl]-methanol] | < 20 | + (<20%)
19 | C=Cc1ccc(N2c3cccc(-c4nc5ccc(Cl)cc5[nH]4)c3OC[C@@H]2CO)nc1 [Example 59, [(S)-8-(6-chloro-1H-benzimidazol-2-yl)-4-(5-vinyl-pyridin-2-yl)-3,4-dihydro-2H-benzo[1,4]oxazin-3-yl]-methanol] | < 20 | +++ (51-80%)
20 | C=Cc1ccc(N2c3cccc(-c4nc5ccc(Br)cc5[nH]4)c3OC[C@@H]2CO)nc1 [Example 60, [(S)-8-(6-bromo-1H-benzimidazol-2-yl)-4-(5-vinyl-pyridin-2-yl)-3,4-dihydro-2H-benzo[1,4]oxazin-3-yl]-methanol] | < 20 | +++ (51-80%)
21 | C=Cc1ccc(N2c3cccc(-c4nc5c(C)cc(Br)cc5[nH]4)c3OC[C@@H]2CO)nc1 [Example 66, [(S)-8-(6-bromo-4-methyl-1H-benzimidazol-2-yl)-4-(5-vinyl-pyridin-2-yl)-3,4-dihydro-2H-benzo[1,4]oxazin-3-yl]-methanol] | < 20 | +++ (51-80%)
22 | C=Cc1ccc(N2c3cccc(-c4nc5ccc(OC(F)(F)F)cc5[nH]4)c3OC[C@@H]2CO)nc1 [Example 67, [(S)-8-(6-trifluoromethoxy-1H-benzimidazol-2-yl)-4-(5-vinyl-pyridin-2-yl)-3,4-dihydro-2H-benzo[1,4]oxazin-3-yl]-methanol] | < 20 | +++ (51-80%)
23 | C=Cc1ccc(N2c3cccc(-c4nc5cc(Cl)c(Cl)cc5[nH]4)c3OC[C@@H]2CO)nc1 [Example 68, [(S)-8-(5,6-dichloro-1H-benzimidazol-2-yl)-4-(5-vinyl-pyridin-2-yl)-3,4-dihydro-2H-benzo[1,4]oxazin-3-yl]-methanol] | < 20 | +++ (51-80%)
